Results on five compounds are retold here after publication PMC5908784, “Extracellular loops 2 and 3 of the calcitonin receptor selectively modify agonist binding and efficacy” (Biochemical Pharmacology, 2018).

Common to all, as to test: ERK1/2 phosphorylation
Holding throughout (format): cell-based

One test deals with T1, hCTR D287A (Homo sapiens, UniProt P30988, D287A).
T1 construct: c-Myc (N); expressed in transfected cells
T1 sequence (P30988 25-474 D287A): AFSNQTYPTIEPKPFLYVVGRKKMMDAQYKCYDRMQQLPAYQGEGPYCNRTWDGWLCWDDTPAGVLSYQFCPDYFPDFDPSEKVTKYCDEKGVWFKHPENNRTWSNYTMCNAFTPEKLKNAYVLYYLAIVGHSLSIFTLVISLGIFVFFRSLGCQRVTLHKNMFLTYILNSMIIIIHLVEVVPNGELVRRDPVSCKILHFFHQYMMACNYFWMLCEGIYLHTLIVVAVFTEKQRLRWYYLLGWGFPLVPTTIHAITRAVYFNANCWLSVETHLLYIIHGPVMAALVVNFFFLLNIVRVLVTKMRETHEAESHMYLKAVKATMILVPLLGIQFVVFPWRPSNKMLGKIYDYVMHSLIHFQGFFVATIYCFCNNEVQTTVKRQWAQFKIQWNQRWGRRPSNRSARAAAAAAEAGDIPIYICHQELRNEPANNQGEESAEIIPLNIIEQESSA
The note with it: CV1-FlpIn cells, mean ± S.E.M.; for Emax: pERK maximal response. A digest of the protocol: (§1)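 Read-out is phospho-ERK1/2, reported relative to the 10% FBS maximum taken at 6 min. Wells held 2.5 × 10^4 cells seeded the night before. Potency and efficacy reflect functional affinity, efficacy and stimulus-response coupling combined.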

For the next test, the target named is T2, hCTR N286A (Homo sapiens, UniProt P30988, N286A).
T2 construct: c-Myc (N); expressed in transfected cells
T2 sequence (P30988 25-474 N286A): T1 sequence (P30988 25-474 D287A) with N262A, A263D
The note with it: CV1-FlpIn cells, mean ± S.E.M.; for Emax: pERK maximal response; for EC50: pERK, three-parameter logistic fit. In outline: as §1

The target of a further test is T3, hCTR T295A (Homo sapiens, UniProt P30988, T295A).
T3 construct: c-Myc (N); expressed in transfected cells
T3 sequence (P30988 25-474 T295A): T1 sequence (P30988 25-474 D287A) with A263D, T271A
Particulars: CV1-FlpIn cells, mean ± S.E.M.; for Emax: pERK maximal response; for EC50: pERK, three-parameter logistic fit. A digest of the protocol: as §1

The target of a further test is T4, hCTR V293A (Homo sapiens, UniProt P30988, V293A).
T4 construct: c-Myc (N); expressed in transfected cells
T4 sequence (P30988 25-474 V293A): T1 sequence (P30988 25-474 D287A) with A263D, V269A
The note with it: CV1-FlpIn cells, mean ± S.E.M.; for Emax: pERK maximal response; for EC50: pERK, three-parameter logistic fit. A digest of the protocol:
as §1

For the next test, the target named is T5, hCTR V358A (Homo sapiens, UniProt P30988, V358A).
T5 construct: c-Myc (N); expressed in transfected cells
T5 sequence (P30988 25-474 V358A): T1 sequence (P30988 25-474 D287A) with A263D, V334A
The note with it: CV1-FlpIn cells, mean ± S.E.M.; for Emax: pERK maximal response; for EC50: pERK, three-parameter logistic fit. A digest of the protocol:
as §1

As usually defined, the Emax is the size of the effect at its maximum, as opposed to the concentration needed. As usually defined, the EC50 is the concentration that produces a half-maximal response.

Residue numbers refer to the chain shown, from its start. Where a SMILES comes first, the peptide text is derived from it. Bridges are numbered along the chain shown (N, C = ends).

As for `CC(C)C[C@H](NC(=O)[C@H](CCCCN)NC(=O)CNC(=O)[C@H](CC(C)C)NC(=O)[C@@H](NC(=O)[C@@H]1CSSC[C@H](N)C(=O)N[C@@H](CO)C(=O)N[C@@H](CC(N)=O)C(=O)N[C@@H](CC(C)C)C(=O)N[C@@H](CO)C(=O)N[C@@H]([C@@H](C)O)C(=O)N1)C(C)C)C(=O)N[C@@H](CO)C(=O)N[C@@H](CCC(N)=O)C(=O)N[C@@H](CCC(=O)O)C(=O)N[C@@H](CC(C)C)C(=O)N[C@@H](Cc1c[nH]cn1)C(=O)N[C@@H](CCCCN)C(=O)N[C@@H](CC(C)C)C(=O)N[C@@H](CCC(N)=O)C(=O)N[C@H](C(=O)N[C@@H](Cc1ccc(O)cc1)C(=O)N1CCC[C@H]1C(=O)N[C@@H](CCCNC(=N)N)C(=O)N[C@H](C(=O)N[C@@H](CC(N)=O)C(=O)N[C@H](C(=O)NCC(=O)N[C@@H](CO)C(=O)NCC(=O)N[C@H](C(=O)N1CCC[C@H]1C(N)=O)[C@@H](C)O)[C@@H](C)O)[C@@H](C)O)[C@@H](C)O` [sCT], the Emax on hCTR D287A was determined as 39 ± 2%; at hCTR N286A it was 59 ± 5%; at hCTR T295A, 49 ± 4%; at hCTR V293A, 135 ± 12%; on hCTR V358A, 150 ± 8%.

`CSCC[C@H](NC(=O)CNC(=O)[C@H](CO)NC(=O)[C@H](Cc1ccccc1)NC(=O)[C@H](CCCNC(=N)N)NC(=O)[C@H](Cc1c[nH]cn1)NC(=O)[C@H](Cc1ccccc1)NC(=O)[C@H](CC(N)=O)NC(=O)[C@H](CC(N)=O)NC(=O)[C@H](CC(C)C)NC(=O)[C@H](CC(N)=O)NC(=O)[C@H](CCCNC(=N)N)NC(=O)[C@H](Cc1c[nH]c2ccccc12)NC(=O)[C@H](Cc1ccc(O)cc1)NC(=O)[C@H](C)NC(=O)[C@H](CO)NC(=O)[C@H](CC(C)C)NC(=O)[C@@H](NC(=O)[C@@H]1CSSC[C@H](N)C(=O)N[C@@H](CO)C(=O)N[C@@H](CC(N)=O)C(=O)N[C@@H](CC(C)C)C(=O)N[C@@H](CO)C(=O)N[C@@H]([C@@H](C)O)C(=O)N1)C(C)C)C(=O)NCC(=O)N[C@@H](Cc1ccccc1)C(=O)NCC(=O)N1CCC[C@H]1C(=O)N[C@@H](CCC(=O)O)C(=O)N[C@H](C(=O)N1CCC[C@H]1C(N)=O)[C@@H](C)O` [pCT] (H-CSNLSTCVLSAYWRNLNNFHRFSGMGFGPETP-NH2; disulfide 1-7): the maximum response (Emax) at hCTR D287A turned out to be 27 ± 3%; at hCTR N286A, 46 ± 5%; at hCTR T295A, 50 ± 5%; on hCTR V293A, 136 ± 11%; on hCTR V358A, 101 ± 8%. The EC50 at hCTR D287A (pERK, three-parameter logistic fit) is 12.6 nM; on hCTR N286A, 1.2 nM; on hCTR T295A it was 0.759 nM; at hCTR V293A it was 3.16 nM; on hCTR V358A it was 2.24 nM.

In the case of `CC(C)C[C@H](NC(=O)[C@H](CC(N)=O)NC(=O)[C@H](CC(N)=O)NC(=O)[C@H](CO)NC(=O)[C@H](CO)NC(=O)[C@H](CCCNC(=N)N)NC(=O)[C@@H](NC(=O)[C@H](CC(C)C)NC(=O)[C@H](Cc1ccccc1)NC(=O)[C@H](CC(N)=O)NC(=O)[C@H](C)NC(=O)[C@H](CC(C)C)NC(=O)[C@H](CCCNC(=N)N)NC(=O)[C@H](CCC(N)=O)NC(=O)[C@@H](NC(=O)[C@H](C)NC(=O)[C@@H]1CSSC[C@H](NC(=O)[C@@H](N)CCCCN)C(=O)N[C@@H](CC(N)=O)C(=O)N[C@@H]([C@@H](C)O)C(=O)N[C@@H](C)C(=O)N[C@@H]([C@@H](C)O)C(=O)N1)[C@@H](C)O)C(C)C)C(=O)NCC(=O)N1CCC[C@H]1C(=O)N[C@H](C(=O)N[C@@H](CC(C)C)C(=O)N1CCC[C@H]1C(=O)N1CCC[C@H]1C(=O)N[C@H](C(=O)N[C@@H](CC(N)=O)C(=O)N[C@H](C(=O)NCC(=O)N[C@@H](CO)C(=O)N[C@@H](CC(N)=O)C(=O)N[C@H](C(=O)N[C@@H](Cc1ccc(O)cc1)C(N)=O)[C@@H](C)O)C(C)C)[C@@H](C)O)C(C)C` [rAmy], the Emax at hCTR N286A was 41 ± 6%; on hCTR T295A, 28 ± 5%; at hCTR V293A, 67 ± 8%; on hCTR V358A, 59 ± 10%.

In the case of `CC(C)C[C@H](NC(=O)CNC(=O)[C@H](C)NC(=O)[C@H](CC(C)C)NC(=O)[C@H](CCCNC(=N)N)NC(=O)[C@H](Cc1cnc[nH]1)NC(=O)[C@@H](NC(=O)[C@@H](NC(=O)[C@@H]1CSSC[C@H](NC(=O)[C@H](C)N)C(=O)N[C@@H](CC(=O)O)C(=O)N[C@@H]([C@@H](C)O)C(=O)N[C@@H](C)C(=O)N[C@@H]([C@@H](C)O)C(=O)N1)C(C)C)[C@@H](C)O)C(=O)N[C@@H](CC(C)C)C(=O)N[C@@H](CO)C(=O)N[C@@H](CCCNC(=N)N)C(=O)N[C@@H](CO)C(=O)NCC(=O)NCC(=O)N[C@H](C(=O)N[C@H](C(=O)N[C@@H](CCCCN)C(=O)N[C@@H](CC(N)=O)C(=O)N[C@@H](CC(N)=O)C(=O)N[C@@H](Cc1ccccc1)C(=O)N[C@H](C(=O)N1CCC[C@H]1C(=O)N[C@H](C(=O)N[C@@H](CC(N)=O)C(=O)N[C@H](C(=O)NCC(=O)N[C@@H](CO)C(=O)N[C@@H](CCCCN)C(=O)N[C@@H](C)C(=O)N[C@@H](Cc1ccccc1)C(N)=O)C(C)C)[C@@H](C)O)C(C)C)C(C)C)C(C)C` [hαCGRP], the Emax at hCTR N286A is 31 ± 5%; on hCTR T295A, 22 ± 4%; at hCTR V293A, 149 ± 22%; on hCTR V358A, 39 ± 8%. The EC50 at hCTR N286A was 12.9 nM; at hCTR T295A, 20.9 nM; on hCTR V293A, 52.5 nM; at hCTR V358A it was 32.4 nM.

As to `CC[C@H](C)[C@H](NC(=O)[C@H](C)NC(=O)[C@@H](NC(=O)[C@H](CCC(N)=O)NC(=O)[C@@H]1CCCN1C(=O)[C@H](Cc1ccccc1)NC(=O)[C@@H](NC(=O)[C@H](Cc1c[nH]cn1)NC(=O)[C@H](Cc1ccccc1)NC(=O)[C@H](CCCCN)NC(=O)[C@H](CC(N)=O)NC(=O)[C@H](Cc1ccccc1)NC(=O)[C@H](CC(=O)O)NC(=O)[C@H](CCC(N)=O)NC(=O)[C@@H](NC(=O)[C@H](Cc1ccc(O)cc1)NC(=O)[C@@H](NC(=O)CNC(=O)[C@H](CC(C)C)NC(=O)[C@H](CCSC)NC(=O)[C@@H]1CSSC[C@H](N)C(=O)NCC(=O)N[C@@H](CC(N)=O)C(=O)N[C@@H](CC(C)C)C(=O)N[C@@H](CO)C(=O)N[C@@H]([C@@H](C)O)C(=O)N1)[C@@H](C)O)[C@@H](C)O)[C@@H](C)O)[C@@H](C)O)C(=O)NCC(=O)N[C@H](C(=O)NCC(=O)N[C@@H](C)C(=O)N1CCC[C@H]1C(N)=O)C(C)C` [hCT], the Emax on hCTR D287A came out at 35 ± 5%; at hCTR N286A, 52 ± 5%; on hCTR T295A it was 48 ± 6%; on hCTR V293A it was 130 ± 8%; at hCTR V358A, 160 ± 10%.
